Patent publication US11117888B2, “Irreversible inhibitors of pyruvate kinase M2 and the use thereof” (China Medical University, priority 2020, dated 2021)

Legend:
[1] = system: H1650 lung cancer cells; assay: MTT cell viability assay, H1650; type: cell-based; details: Homo sapiens, NCI-H1650, H1650 (mutant EGFR), 24 hours
Description: (§1) Cell lines, cell culture, biochemical reagents, and antibodies. MiaPaCa-2, AsPC-1, and Panc-1 human pancreatic cancer cells, MCF-7 and MDA-MB-231 breast cancer cells, SCC4 and SCC2059 oral cancer cells, PC-3 and LNCaP prostate cancer cells, H157, H460, H1975, PC-9 and H1650 lung cancer cells were obtained from the American Type Culture Collection (ATCC, Manassas, Va.). All these cells were maintained in recommended growth medium (RPMI 1640 or DMEM) supplemented with 10% fetal bovine serum (FBS) (Invitrogen, Carlsbad, Calif., USA) and antibiotics at 37° C. in a humidified incubator containing 5% CO2. For SILAC experiments, PC-9 cells were grown in SILAC DMEM medium (Thermo Fisher) supplemented with 10% dialyzed FBS and 100 μg/mL each of unlabeled L-arginine and L-lysine (light medium) or ^13C/^15N stable isotope-labeled L-arginine and L-lysine (heavy medium). […]
(§2) Cell viability assays. Drug effects on cell viability was assessed by 3-(4,5-dimethylthiazol-2-yl)-2,5-diphenyltetrazolium bromide ([…]) assays. […] The medium was then removed from each well and replaced with DMSO to dissolve the reduced MTT dye for subsequent colorimetric measurement of absorbance at 560 nm. Cell viabilities are expressed as percentages of viable cells relative to the corresponding vehicle-treated control group.

[2] = system: H1975 lung cancer cells; assay: MTT cell viability assay, H1975; type: cell-based; details: Homo sapiens, NCI-H1975, H1975 (mutant EGFR), 24 hours
Description: as §1, §2

[3] = system: H460 lung cancer cells; assay: MTT cell viability assay, H460; type: cell-based; details: Homo sapiens, NCI-H460, H460 (wild type EGFR), 24 hours
Description: as §1, §2

[4] = system: ROS production in PC-9 cells; assay: ROS assay; type: cell-based, human; details: 0.25 μM and 0.5 μM, 6 hours
Method: ROS assay. ROS detection was performed by using a fluorescent assay kit from BioVision (Milpitas, Calif., USA) according to the manufacturer's instructions. Briefly, PC-9 cells were seeded into 96-well plate at a cell density of 2×10^4 cells per well. After 24 hours, cells were treated with indicated concentration of compound 1 or DMSO for 6 hours. After treatment, cells were washed in ROS assay buffer and then incubated with 1×ROS label diluted in ROS assay buffer for 45 min at 37° C. in the dark. The ROS label was removed, and the fluorescence at Ex/Em 495/529 nm in end point mode was measured immediately after 100 μl of ROS assay buffer was added to each well.

[5] = biological target: PKM2 (Homo sapiens, UniProt P14618); assay: Covalent adduct formation with recombinant PKM2 (anti-compound 1 antibodies, nanoLC-MS/MS site mapping); type: binding; set-up: made in house
Method: As this cell-based kinase assay could not rule out the involvement of PKM1, we examined the abilities of compound 1 to inhibit the kinase activity of recombinant PKM2 (SAE0021, Sigma-Aldrich) versus recombinant PKM1 (SRP0415, Sigma-Aldrich) using a commercial PKM assay kit. […] In brief, PC-9 cells were exposed to different concentrations of compound 2 in the presence of compound 1 (1 μM) for 1 hour, lysed, and the cell lysates were treated with biotin-azide, followed by streptavidin bead pulldown under the aforementioned conditions. […] The antigen of compound 1 was prepared by coupling this small molecule with cysteine residues of ovalbumin, which was then used for immunization in guinea pigs.
Preparation of anti-compound 1 antiserum. compound 1 was coupled to the cysteine thiolate in ovalbumin (OVA) via the propiolyl moiety under alkaline conditions by using the modifications to a published method. […]
As PKM2 has a total of 10 cysteine residues (NCBI reference sequence: NM_002654), we conducted proteomic analysis to identify which cysteine residues were covalently modified by compound 1. […] In general, the modification site assignment was considered reliable if the b and y ions flanking the implicated site could be detected, with mass shifts corresponding to a compound 1-modified cysteine (+516.1773 Da). […]

Sequence of PKM2 (P14618 whole entry): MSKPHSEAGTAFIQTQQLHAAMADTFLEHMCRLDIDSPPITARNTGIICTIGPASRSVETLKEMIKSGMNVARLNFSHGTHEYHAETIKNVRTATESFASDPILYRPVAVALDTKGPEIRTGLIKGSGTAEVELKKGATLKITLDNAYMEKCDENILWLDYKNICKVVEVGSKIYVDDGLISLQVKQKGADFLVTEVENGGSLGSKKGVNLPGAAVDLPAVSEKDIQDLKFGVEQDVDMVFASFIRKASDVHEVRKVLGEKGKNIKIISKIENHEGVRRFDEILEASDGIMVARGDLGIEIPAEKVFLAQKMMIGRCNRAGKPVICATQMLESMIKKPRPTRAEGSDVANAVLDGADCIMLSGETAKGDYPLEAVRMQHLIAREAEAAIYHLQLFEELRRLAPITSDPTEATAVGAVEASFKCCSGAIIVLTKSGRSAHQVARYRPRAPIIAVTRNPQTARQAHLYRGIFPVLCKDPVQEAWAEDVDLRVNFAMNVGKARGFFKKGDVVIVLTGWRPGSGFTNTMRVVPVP

IC50 [1]: 200 nM
IC50 [2]: 1000 nM
IC50 [3]: 1500 nM
SMILES: C#CC(=O)Nc1ccc(-n2nc(CCC(=O)NC)cc2-c2ccc(-c3ccc(C(F)(F)F)cc3)cc2)cc1 [compound 1, N-(4-(3-(3-(Methylamino)-3-oxopropyl)-5-(4′-(trifluoromethyl)-[1,1′-biphenyl]-4-yl)-1H-pyrazol-1-yl)phenyl)propiolamide]
ROS level [4]: reduced the ROS level
covalent adduct with recombinant PKM2 (anti-compound 1 antibodies) ([5]; Western blot, 4° C. for 6 hours): antibodies cross reacted with compound 1-treated PKM2
cysteine residues of PKM2 covalently modified ([5]; tryptic digestion, nanoLC-MS/MS): covalently coupled to the two cysteine residues Cys317 and Cys326
